From patent US20210356447A1, “EFFICACY EVALUATION METHOD OF DRUG FOR REVERSING TUMOR MULTIDRUG RESISTANCE” (JINAN UNIVERSITY, priority 2018, published 2021)

System: Liver cancer HepG2/ADR tumor-transplanted nude mouse model
Assay: Callback rate of serum and urine metabolic markers (targeted metabonomics, LC-MS/MS) in drug-resistant liver cancer nude mouse model
Assay type: in vivo, nude mice (nu/nu-BALB/c)
[1] = serum metabolic marker, 3 mg/kg, 0.2 ml tail vein injection once every three days, seven times, HepG2/ADR nude mice
[2] = urine metabolic marker, 3 mg/kg, 0.2 ml tail vein injection once every three days, seven times, HepG2/ADR nude mice

Experimental: Liver cancer HepG2/ADR tumor-transplanted nude mouse models were firstly established and divided into four groups with 30 mice in each group, and after one week of successful establishment of the model, the mice were administered in different methods:
Metabolic markers were quantified by a targeted metabonomics technology, and an efficacy of a drug for reversing tumor multidrug resistance to be evaluated was evaluated by a concentration of each metabolic marker.
Cell transplanting: ten nude mice without thymus, including five male mice and five female mice, were selected, after 10-day adaptation period, 0.2 ml of HepG2/ADR cells (cell concentration: 6×10^7 cells/ml) were subcutaneously injected into each nude mouse with a 23G sterile needle, and in order to prevent tumor cells from being destroyed and matrix gel from being solidified in the period, the injection should be completed as soon as possible. Before injection, the needle was shaken left and right to form an expanded subcutaneous cyst (because if the injection was performed to a specific area by not shaking the needle, the mixture could form a large cell mass, and ineffective perfusion of nutrients in a core of the mass into the cells could result in subsequent growth defects), and when the needle was taken out, the injector was rotated to prevent leakage of cell sap. After subcutaneous injection, the matrix gel was irreversibly solidified to form a red bulge, about 10 days later, the solidified matrix gel was eliminated, and the tumor cells were successfully inoculated, and after a tumor mass grew for three weeks, nude mice with the tumor of the same size (about 7 mm in diameter) were selected. The subcutaneous tumor mass was taken out, a peripheral part of the tumor mass was divided into small tumor masses of 2×2×2 mm, after the nude mice (nu/nu-BALB/c, half male nude mice and half female nude mice at six weeks old, n=30) were anesthetized with isoflurane, the small tumor masses were subcutaneously implanted into shoulders of the nude mice to make the tumor masses of liver cancer model mice similar in size and shape, thus reducing experimental errors caused by different tumor mass sizes. After successful transplantation, growth statuses of the model nude mice were observed and recorded every day, weights of the nude mice were recorded every two days, and tumor sizes (length and width) were measured with a vernier caliper.
Healthy group: only normal saline was administrated to 30 healthy nude mice without being inoculated with any tumor cells once every three days for a total of seven times, with a dose of 0.2 ml each time by an administration method of tail vein injection.
Negative control group: only normal saline was administrated to 30 liver cancer HepG2/ADR tumor-transplanted nude mouse models once every three days for a total of seven times, with a dose of 0.2 ml each time by an administration method of tail vein injection.
Mass spectra of standard substances of a-linolenic acid, 3-methylglutaric acid, 17-hydroxystearic acid, xanthurenic acid, indole-2-carboxylic acid and 3-furoic acid were measured to determine mass-spectrometric detection conditions of each metabolic marker.
A series of linear concentration samples of the standard substance of each metabolic marker were respectively measured using the detection conditions above to obtain a relationship between a peak area of a characteristic fragment particle peak and a concentration of each metabolic marker, and linear regression was performed to obtain a linear regression equation.

SMILES | Callback rate, 3-methylglutaric acid [1] | Callback rate, A-linolenic acid [1] | Callback rate, 3-furoic acid [2] | Callback rate, Xanthurenic acid [2] | Callback rate, indole-2-carboxylic acid [2] | effect of reversing tumor drug resistance, judged from the callback rates (result in words, comparison of groups in HepG2/ADR nude mice)
COc1cccc2c1C(=O)c1c(O)c3c(c(O)c1C2=O)C[C@@](O)(C(=O)CO)C[C@@H]3O[C@H]1C[C@H](N)[C@H](O)[C@H](C)O1 [Positive control group, doxorubicin] | 13.69% | 17.56% | 12.30% | 19.08% | 12.73% | 
O=c1ccc2cc3ccoc3cc2o1 [psoralen] |  |  |  |  |  | really has the effect of reversing tumor drug resistance
